# Experimental data taken from article PMC5913645, “Methyl phenlactonoates are efficient strigolactone analogs with simple structure” (Journal of Experimental Botany, 2017).
# Entries after “also recorded” stand apart in the source; their conditions may differ.
# How the values were obtained:
# rice d10 mutant = assay: Rice micro tillering bioassay, d10 mutant; type: in vivo; conditions: 2.5 μM
# Procedure: Rice seeds (WT, d3, d10) were surface-sterilized by washing with 70% ethanol for 1 min and then with 2.5% sodium hypochlorite for 15 min. Seeds were then rinsed thoroughly with sterile MilliQ water and incubated in water for 2 d at 30 °C in the dark. Pre-germinated seeds were transferred to filter papers containing half-strength MS medium in 90 mm Petri dishes and incubated at 30 °C under fluorescent white light (130–180 μmol m^−2 s^−1) for 1 week. Seven-day-old seedlings were transferred to 50 ml falcon tubes (one seedling per tube) containing modified half-strength Hoagland nutrient solution and grown in greenhouse. Plants were treated with MPs at 2.5 μM to 2.5 × 10^–7 μM, using GR24 as positive control. The compounds were applied six times, twice a week. Number of tillers per plant, plant height and fresh biomass were measured at final harvest.
# Statistical analyses were carried out using the statistical software package R (version 3.2.2). Dose–response curves and half-maximum effective concentrations (EC50) were calculated to determine optimum amount of MPs. The synthetic strigolactone analog GR24 was used as reference to estimate efficacy of selected compounds. EC50 and estimated response were calculated using the drc package (https://cran.r-project.org/web/packages/drc/) with a four parameter logistic curve (dose–response curve) ([Ritz and Streibig, 2005]).
# S. hermonthica seeds [1] = assay: Striga hermonthica seed germination bioassay; type: in vivo; conditions: for EC50: Striga hermonthica, concentrations 10^–5 to 10^–12 M; for germination activity, order among the chlorophenyl compounds: species not given
# Procedure: Parasitic weed seeds’ (S. hermonthica and P. ramosa) germination activity was studied as described previously ([Jamil et al., 2012]). Six pre-conditioned seed discs were placed in a 90 mm Petri dish containing a filter paper ring wetted with 0.9 ml sterile MilliQ water. Then 50 μl of SL analog solution (10^–5–10^–12 M) was applied on each of the six discs, for each concentration. GR24 solutions with equal concentrations and sterile MilliQ water were included as a positive and negative control, respectively. After application, seeds of S. hermonthica and P. ramosa were incubated in dark at 30 °C for 2 d and at 25 °C for 4 d, respectively. Germination (seeds with radicle emerging through the seed coat) was scored under a binocular microscope, and germination rate (%) was calculated. Statistical analyses were carried out using the statistical software package R (version 3.2.2). Dose–response curves and half-maximum effective concentrations (EC50) were calculated to determine optimum amount of MPs. The synthetic strigolactone analog GR24 was used as reference to estimate efficacy of selected compounds. EC50 and estimated response were calculated using the drc package (https://cran.r-project.org/web/packages/drc/) with a four parameter logistic curve (dose–response curve) ([Ritz and Streibig, 2005]).
# P. ramosa seeds [2] = assay: P. ramosa seed germination bioassay; type: in vivo, Phelipanche ramosa; conditions: 1.0 μM
# Procedure: Parasitic weed seeds’ (S. hermonthica and P. ramosa) germination activity was studied as described previously ([Jamil et al., 2012]). Six pre-conditioned seed discs were placed in a 90 mm Petri dish containing a filter paper ring wetted with 0.9 ml sterile MilliQ water. Then 50 μl of SL analog solution (10^–5–10^–12 M) was applied on each of the six discs, for each concentration. GR24 solutions with equal concentrations and sterile MilliQ water were included as a positive and negative control, respectively. After application, seeds of S. hermonthica and P. ramosa were incubated in dark at 30 °C for 2 d and at 25 °C for 4 d, respectively. Germination (seeds with radicle emerging through the seed coat) was scored under a binocular microscope, and germination rate (%) was calculated.
# [3] = Chemical stability in aqueous solution (UHPLC); type: physicochemical; conditions: aqueous solution pH 6.8, 21 °C, 50 μg ml^−1, monitored at 24 h intervals up to 3 weeks
# Procedure: Aqueous solutions of MPs (50 μg ml^−1; pH 6.8) were incubated at 21 °C in amber HPLC vials (adapted from [de Saint Germain et al., 2016]). For sample preparation, 50 μl of an acetone solution (1 mg ml^−1) was diluted to the final concentration with methanol (425 μl), water (500 μl) and 25 μl of 1-indanol (1.0 mg ml^−1 solution in acetone) as internal standard. […] Compounds eluted from the column were detected with a diode array detector. The relative quantity of remaining (non-degraded) product was determined by comparison with the internal standard. Stability was monitored at 24 h intervals up to 3 weeks.
# Arabidopsis seedlings [4] = assay: Arabidopsis hypocotyl elongation assay; type: in vivo; conditions: 1.0 μM, continuous red light
# Procedure: Sterilized Arabidopsis seeds were sown on half-strength MS (with 0.5% sucrose+1% agar, 0.5 g l^−1 MES, pH 5.7) plates supplemented with MPs or GR24 (at 1.0 μM). Plates were stored at 4 °C in darkness for 3 d. To initiate germination, plates were exposed to continuous white light for 24 h, then transferred to continuous monochromatic red light (20 μmol m^−2 s^−1, 22 °C) conditions for another 4 d. For hypocotyl length measurement, at least 30 seedlings were measured using the freely available ImageJ software (http://rsbweb.nih.gov/ij/) after taking digital photographs. A monochromatic red light source was applied as described previously ([Wu and Yang, 2010]). Light flow rates were measured using a Li250 quantum photometer (Li-Cor, Lincoln, NE, USA).
# S. hermonthica seeds [5] = conditions: cited from earlier work
# P. ramosa seeds [6] = test system: P. ramosa seeds; set-up: method as in Wigchert et al., 1999; conditions: ref Wigchert et al., 1999; cited from earlier work
# Arabidopsis seedlings [7] = test system: Arabidopsis seedlings; set-up: method as in Jia et al. (2016); conditions: ref Jia et al., 2016; cited from earlier work
# parasite seed = conditions: ref Fukui et al., 2013; cited from earlier work
# Arabidopsis seedlings [8] = assay: Arabidopsis lateral root density; type: in vivo; conditions: 1.0 μM, 8-day-old seedlings
# Procedure: Sterilized Arabidopsis seeds were sown on half-strength MS (with 0.5% sucrose+1% agar, 0.5 g l^−1 MES, pH 5.7) plates supplemented with GR24 or MPs (at 1.0 μM). Plates were stored at 4 °C in darkness for 3 d and then vertically grown at 22 °C in a Percival incubator under long day condition (16 h at 22 °C/8 h at 16 °C day/night, 60% relative humidity, 60–70 μmol m^−2 s^−1 white light) for 8 d. For determining the effect on lateral root density and primary root length, at least 30 seedlings were measured using ImageJ software after scanning roots.
smiles,measurement,setting,value
COC(=O)/C(=C/OC1C=C(C)C(=O)O1)c1ccccc1[N+](=O)[O-] (centres unmarked) [MP2],"growth, senescence symptoms and biomass of rice seedlings",rice d10 mutant,stunted the growth and caused senescence symptoms
same,EC50,S. hermonthica seeds [1],32 nM
same,P. ramosa germination activity,P. ramosa seeds [2],much higher activity
same,stability in comparison with GR24,[3],more stable than GR24
COC(=O)/C(=C/OC1C=C(C)C(=O)O1)c1ccccc1Cl (centres unmarked) [MP9],"growth, senescence symptoms and biomass of rice seedlings",rice d10 mutant,stunted the growth and caused senescence symptoms
same,"germination activity, order among the chlorophenyl compounds",S. hermonthica seeds [1],highest germination activity with MP7 (Cl in para position) followed by MP9 (ortho position) and MP8 (meta position)
same,stability in comparison with GR24,[3],very similar to that of GR24
COC(=O)/C(=C/OC1C=C(C)C(=O)O1)c1ccc(OC)cc1 (centres unmarked) [MP14],stability in comparison with GR24,[3],very similar to that of GR24
"CC1=CC(O/C=C(/C=O)c2ccc([N+](=O)[O-])cc2)OC1=O (centres unmarked) [MP12, (E)-3-(4-methyl-5-oxo-2,5-dihydrofuran-2-yloxy)-2-(4-nitrophenyl)acrylaldehyde]",inhibition of hypocotyl growth,Arabidopsis seedlings [4],"Apart from MP12 and MP15, all MPs showed significant inhibition"
same,stability in comparison with GR24,[3],quite unstable and not detectable even after only 24 h
COC(=O)/C(=C\OC1C=C(C)C(=O)O1)c1ccccc1Cl (centres unmarked) [MP10],"growth, senescence symptoms and biomass of rice seedlings",rice d10 mutant,stunted the growth and caused senescence symptoms
same,stability in comparison with GR24,[3],more stable than GR24
COC(=O)/C(=C/O[C@H]1C=C(C)C(=O)O1)N1C(=O)c2ccccc2C1=O [Nijmegen-1],EC50 for S. hermonthica germination relative to GR24,"S. hermonthica seeds [5]; ref Wigchert et al., 1999",three orders of magnitude higher than GR24
same,seed germination in P. ramosa,P. ramosa seeds [6],potent inducer
COC(=O)C(=COC1C=C(C)C(=O)O1)c1cccc2ccccc12 (centres unmarked) [MP11],S. hermonthica germination rate,S. hermonthica seeds [1]; 1.0 μM,32%
same,EC50,S. hermonthica seeds [1],1700 nM
same,stability in comparison with GR24,[3],very similar to that of GR24
CC1=CC(O/C=C2/C(=O)OCc3ccccc32)OC1=O (centres unmarked) [MP5],stability in comparison with GR24,[3],more stable than GR24; also recorded: most stable compound
CC1=CC(O/C=C(/C)c2ccc([N+](=O)[O-])cc2)OC1=O (centres unmarked) [nitro-phenlactone],activity in stimulating S. hermonthica germination,"S. hermonthica seeds [5]; ref Jia et al., 2016",very weak activity
same,effect on lateral root density,Arabidopsis seedlings [7],did not affect lateral root density
CC1=CC(Oc2ccc(Br)cc2)OC1=O (centres unmarked) [4-Br-debranone],activity in inducing parasite seed germination,parasite seed,moderate activity
COC(=O)/C(=C/OC1C=C(C)C(=O)O1)c1cccc(Cl)c1 (centres unmarked) [MP8],reduction of lateral root number/density,Arabidopsis seedlings [8],slightly more active than GR24
same,"germination activity, order among the chlorophenyl compounds",S. hermonthica seeds [1],highest germination activity with MP7 (Cl in para position) followed by MP9 (ortho position) and MP8 (meta position)
same,P. ramosa germination activity,P. ramosa seeds [2],much higher activity
same,stability in comparison with GR24,[3],very similar to that of GR24
COC(=O)/C(=C/OC1C=C(C)C(=O)O1)c1cccc(F)c1 (centres unmarked) [MP6],"growth, senescence symptoms and biomass of rice seedlings",rice d10 mutant,stunted the growth and caused senescence symptoms
COC(=O)/C(=C/OC1C=C(C)C(=O)O1)c1ccc(O)cc1 (centres unmarked) [MP15],inhibition of hypocotyl growth,Arabidopsis seedlings [4],"Apart from MP12 and MP15, all MPs showed significant inhibition"
same,stability in comparison with GR24,[3],slightly less stable than GR24
COC(=O)/C(=C/OC1C=C(C)C(=O)O1)c1ccc(C)cc1 (centres unmarked) [MP4],stability in comparison with GR24,[3],more stable than GR24
